# Data published in patent US20050277615A1, “Pharmaceutical compositions having anti-inflammatory activity” (CAN-FITE BIOPHARMA LTD., priority 2004, published 2005).
# Experiments:
# [1] = Preliminary qualitative solubility study; assay type: physicochemical; settings: 1 mg/ml, ambient temperature
# [2] = target: T1, human adenosine A2A receptors expressed in CHO cells (Homo sapiens, UniProt P29274); assay: cAMP assay A2A (stimulation of cAMP production); assay type: cell-based
# T1 construct: expressed in transfected cells; host or cells: CHO
# T1 sequence (P29274 whole entry): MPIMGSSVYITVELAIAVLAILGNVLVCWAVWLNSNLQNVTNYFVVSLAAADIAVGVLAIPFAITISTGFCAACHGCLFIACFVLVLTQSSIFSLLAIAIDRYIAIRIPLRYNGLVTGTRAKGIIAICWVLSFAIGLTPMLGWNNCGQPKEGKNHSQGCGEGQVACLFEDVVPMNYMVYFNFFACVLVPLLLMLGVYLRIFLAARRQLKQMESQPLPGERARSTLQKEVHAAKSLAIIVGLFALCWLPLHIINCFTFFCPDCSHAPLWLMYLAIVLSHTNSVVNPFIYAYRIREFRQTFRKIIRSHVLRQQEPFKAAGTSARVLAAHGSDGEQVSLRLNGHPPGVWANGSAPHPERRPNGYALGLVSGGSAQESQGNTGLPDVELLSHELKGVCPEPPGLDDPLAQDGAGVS
# Procedure: After incubation for 40 minutes at 37° C., 100 μL agonist was added. […] Wells were stored at −20° C. until assay.
# Wells were stored at −20° C. until assay. […] As a buffer was used 150 mM K2HPO4/10 mM EDTA/0.2% Bovine Serum Albumine (BSA) at pH 7.5.
# (§1) Data Analysis. Apparent Ki and EC50 values were computed from the displacement curves by non-linear regression of the competition curves with the software package Prism (Graph Pad, San Diego, Calif.).
# [3] = test system: colitis in male Balb/C mice; assay: Dextran sodium sulfate colitis model; assay type: in vivo, mouse; settings: 5% DSS Balb/c mice
# Excerpt: Colitis induced by dextran sodium sulfate is a murine model of intestinal inflammation that resembles human inflammatory bowel diseases such as Crohn's disease. Male Balb/C mice, 8 weeks of age were fed for 7 days, with 5% dextran sulfate sodium in distilled water throughout the experiments. […] Weight loss and survival were monitored.
# [4] = test system: phosphorylated GSK-3β; assay: Western blot of spinal cord protein extract of EAE rats; assay type: in vivo, rat; settings: treated vs untreated (FIG. 2)
# [5] = test system: Experimental autoimmune encephalomyelitis (EAE) in female Lewis rats; assay: MBP-induced EAE in Lewis rats, clinical score; assay type: in vivo, rat; settings: 10 μg/kg PO BID from day 7, difference in maximal clinical score P<0.01 (FIG. 1)
# Procedure: EAE is an inflammatory demyelinating disease of the nervous system, which serves as a model for multiple sclerosis (MS). EAE was induced by intradermal injection at the base of the tail of female Lewis rats (8 weeks old) with an emulsion consisting of the following for each rat: 100 μg myelin basic protein (MBP) from guinea pig (M2295; Sigma), 0.1 ml Complete Freund's adjuvant (CFA; F5506, Sigma), and 0.2 mg of Mycobacterium tuberculosis H37 Ra (M. tuberculosis, 3114, Difco). The emulsion was injected in two halves into the medial footpad of each hind limb of the rats.
# The rats developed clinical EAE symptoms which were graded into the following categories: 0, no neurological symptoms; 1, loss of tail tonus and paralysis of the whole tail; 2, hind limbs weakness; 3, hind limbs paralysis; 4, quadriplegia; 5, moribund. The immunized rats developed acute monophasic EAE within 10 days after immunization.
# [6] = target: T2, adenosine A1 receptor in rat brain cortex (Rattus norvegicus, UniProt P25099); assay: Radioligand binding, [3H]DPCPX displacement; settings: rat cortical membranes, 10 μM
# T2 construct: the adenosine A1 receptor in rat brain cortex; from tissue; host or cells: rat brain cortex
# T2 sequence (P25099 1-326): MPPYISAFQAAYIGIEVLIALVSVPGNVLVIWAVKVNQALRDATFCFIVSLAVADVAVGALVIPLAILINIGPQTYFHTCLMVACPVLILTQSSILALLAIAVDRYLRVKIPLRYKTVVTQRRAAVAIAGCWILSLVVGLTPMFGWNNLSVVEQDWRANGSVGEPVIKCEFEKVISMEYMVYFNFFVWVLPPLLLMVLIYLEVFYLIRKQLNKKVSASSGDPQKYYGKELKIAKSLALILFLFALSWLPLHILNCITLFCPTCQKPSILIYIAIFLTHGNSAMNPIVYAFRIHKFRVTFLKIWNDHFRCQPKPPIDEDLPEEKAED
# [7] = test system: EAE in female C57B1 mice; assay: MOG-induced EAE in C57B1 mice, clinical score; assay type: in vivo, mouse; settings: MOG-immunized C57BL/6J female mice, oral treatment from day 7 (FIG. 3)
# Procedure: . The encephalitogenic emulsion containing MOG (300 μg/mouse) in Complete Freund's adjuvant enriched with 5 mg/mL Mycobacterium Tuberculosis was injected subcutaneously in the right flank of the mouse. A boost of the encephalitogenic emulsion was injected subcutaneously in the left flank one week later. Also, on the day of the first injection of MOG, Pertussis toxin (300 ng/mouse) was injected intraperitoneally at a volume dose of 0.1 mL/mouse. The injection of the Pertussis Toxin was repeated after 48 hours. The mice were observed daily from the 10th day post-EAE induction (first injection of MOG) and the EAE clinical signs were scored as follows:. 0—No neurological signs; 1—Distal limp tail: 1.5—Complete limp tail; 2—Difficulties to return on feet when laid on the back; 3—Ataxia; 4—Early paralysis; 5—Full paralysis; 6—Moribund/Death. […] The clinical score was monitored daily starting with the appearance of neurological signs.
# [8] = target: T3, A2A receptor in rat striatum (Rattus norvegicus, UniProt P30543); assay: Radioligand binding, [3H]ZM 241385 displacement; settings: [3H]ZM 241385, rat striatal membranes
# T3 construct: the A2A receptor in rat striatum; from tissue; host or cells: rat striatum
# T3 sequence (P30543 whole entry): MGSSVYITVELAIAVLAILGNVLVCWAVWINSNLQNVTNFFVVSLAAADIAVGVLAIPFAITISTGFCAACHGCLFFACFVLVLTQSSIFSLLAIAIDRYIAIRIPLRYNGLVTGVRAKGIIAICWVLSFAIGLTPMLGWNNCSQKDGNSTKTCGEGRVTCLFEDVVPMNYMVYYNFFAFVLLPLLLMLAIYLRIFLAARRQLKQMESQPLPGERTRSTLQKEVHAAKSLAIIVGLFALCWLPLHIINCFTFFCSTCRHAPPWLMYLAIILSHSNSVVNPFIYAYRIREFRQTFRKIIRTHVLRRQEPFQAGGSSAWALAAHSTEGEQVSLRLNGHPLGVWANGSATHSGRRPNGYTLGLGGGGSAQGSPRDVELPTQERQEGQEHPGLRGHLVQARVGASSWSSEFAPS
# [9] = test system: TNF-α; assay: Western blot of spinal cord protein extract of EAE rats; assay type: in vivo, rat; settings: treated vs untreated (FIG. 2)
# [10] = test system: IL-10; assay: as above; assay type: in vivo, rat; settings: treated vs untreated (FIG. 2)
# [11] = target: T4, human A3 receptor as expressed in HEK 293 cells (Homo sapiens, UniProt P0DMS8); assay: Radioligand binding, [125I]AB-MECA displacement; settings: human A3 receptor in HEK 293 cells, ±SEM, n = 3
# T4 construct: expressed in transfected cells; host or cells: HEK 293
# T4 sequence (P0DMS8 1-318): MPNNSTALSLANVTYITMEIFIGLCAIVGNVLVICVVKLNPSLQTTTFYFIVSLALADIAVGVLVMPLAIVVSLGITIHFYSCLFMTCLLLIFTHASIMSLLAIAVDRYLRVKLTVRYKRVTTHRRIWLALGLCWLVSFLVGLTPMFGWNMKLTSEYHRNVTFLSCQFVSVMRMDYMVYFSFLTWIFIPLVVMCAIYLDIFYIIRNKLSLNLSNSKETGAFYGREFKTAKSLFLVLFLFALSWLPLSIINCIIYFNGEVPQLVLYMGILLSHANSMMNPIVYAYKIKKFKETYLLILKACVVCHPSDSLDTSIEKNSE
# Procedure: General. […] AB-MECA, an A3 receptor agonist, was used. Displacement experiments were performed in the absence of GTP.
# Radioligand Binding Studies. […] Incubations were carried out for 1 hr at 37° C. and were terminated by rapid filtration over Whatman GF/B filters, using a Brandell cell harvester (Brandell, Gaithersburg, Md.). Tubes were washed three times with 3 ml of buffer. Radioactivity was determined in a Beckman 5500B γ-counter. Nonspecific binding was determined in the presence of 10^−5 M R-PIA.
# as §1
# [12] = target: T5, A1 receptor (Rattus norvegicus, UniProt P25099); settings: Siddiqi et al (1995); cited from earlier work
# T5 sequence (P25099 1-326): T2 sequence (P25099 1-326)
# [13] = test system: multiple sclerosis (MS) patients; settings: patients having MS, U.S. Pat. No. 5,506,214; cited from earlier work
# [14] = target: A2a receptor (Rattus norvegicus, UniProt P30543); settings: Siddiqi et al (1995); cited from earlier work
# Chain of A2a receptor (P30543 whole entry): as the sequence (P30543 whole entry) above
smiles,measurement,setting,value
"CCCCC#Cc1nc(N)c2ncn(C3OC(CSC)C(O)C3O)c2n1 (stereo not drawn) [CF402, 5′-deoxy-2-(1-hexynyl)-5′-methylthioadenosine]",Solubility in DMSO,[1]; DMSO,Soluble
same,Solubility in water,[1]; water,Insoluble
same,Emax,[2]; CHO,45 ± 6%
same,EC50,"[2]; cAMP production, A2A CHO cells",0.7 ± 0.1 µM
same,Clinical signs of colitis,[3]; 10 μg/kg PO BID from day 4,protected
same,Weight loss vs control,[3]; 10 μg/kg PO BID from day 4 (FIG. 4),reduced weight loss
same,Phosphorylated GSK-3β protein expression level in spinal cord,[4],decrease
same,Clinical EAE score vs control group,[5],remarkably low clinical score
same,"% displacement at 10^−5 M, A1",[6],36%
same,Inhibition of development of EAE clinical signs vs control group,[7],40%
same,Ki,"[8]; ±SEM, n = 3",60 ± 20 nM
same,Level of TNF-α in spinal cord protein extract,[9],down-regulation
same,Level of IL-10 in spinal cord protein extract,[10],up-regulation
OC[C@H]1O[C@@H](n2cnc3c(NC4CCCC4)ncnc32)[C@H](O)[C@@H]1O [CPA],Ki,[11],120 ± 15 nM
"Nc1nc(Cl)nc2c1ncn2[C@H]1C[C@H](O)[C@@H](CO)O1 [CdA, 2-chloro-2′-deoxyadenosine]",Type of action at A1 receptors,[12],putative partial agonist
same,Effect on MS disease condition,[13],markedly ameliorate
same,Ki,[14],20000 nM
"CNC(=O)[C@H]1O[C@@H](n2cnc3c(NCc4cccc(I)c4)nc(Cl)nc32)[C@H](O)[C@@H]1O [Cl-IB-MECA, reference compound]","% displacement at 10^−5 M, A2A",[8]; 10 μM,24%
